This note sets out measurements from ChEMBL document CHEMBL1201862, “PubChem BioAssay data set” (2004).

A word on the GI50: it is the concentration at which growth is held to half of that of the control.

Among the test systems are MDA-MB-435; PC-3; SF-268; KM12; U-251; MDA-N; LOX IMVI; NCI/ADR-RES; SNB-19; 786-0; SK-MEL-5; MCF7; UACC-62; DU-145; SNB-75; OVCAR-8; NCI-H23; UO-31; SK-MEL-28; NCI-H522.
Holding throughout (test): DTP human tumour cell line panel, 48 h

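In this assay, cells in 96-well plates receive the compound at five concentrations for 48 hours. Endpoints are linearly interpolated between the surrounding concentrations. GI50 is the concentration that inhibits growth by half.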 Active and inactive are the calls of the source. No stated cut-off is given here; in the data, active = GI50 up to about 1.1 µM and inactive = higher. Where only a bound is given, the exact number is not on record here.

In the case of `CO[C@H]1O[C@@H]2CO[C@@H](c3ccccc3)O[C@H]2C[C@]12CCC/C=C\CO2`, the GI50 with MDA-MB-435 was 12.2 µM (inactive); in the assay with PC-3, 16.2 µM (inactive); in the assay with SF-268, 14.4 µM (inactive); in the assay with KM12 it was 29.5 µM (inactive); in the assay on U-251, 12.6 µM (inactive); in the assay with MDA-N it was 14.1 µM (inactive). Moreover, the GI50 in the assay with LOX IMVI is 12.6 µM (inactive); with NCI/ADR-RES, 21 µM (inactive); in the assay with SNB-19, 22.8 µM (inactive); in the assay with 786-0, 14.2 µM (inactive); in the assay with SK-MEL-5, 17.5 µM (inactive); in the assay with MCF7, 15.2 µM (inactive). Besides, the GI50 in the assay with UACC-62 is 27.4 µM (inactive); with DU-145, 33.5 µM (inactive); in the assay on SNB-75 it was 22.5 µM (inactive); in the assay on OVCAR-8 it was 12.1 µM (inactive); with NCI-H23 it was 21.1 µM (inactive); with UO-31 it was 14.3 µM (inactive). Also, the GI50 in the assay with SK-MEL-28 is 13.4 µM (inactive); with NCI-H522 it was 11.5 µM (inactive).

As for `COc1c2c(cc3occ(-c4ccc(CC=C(C)C)cc4)c(=O)c13)OC(C)(C)C=C2`, the GI50 in the assay with MDA-MB-435 was 27 µM (inactive); with PC-3, 17.1 µM (inactive); with SF-268, > 100 µM (inactive); in the assay with KM12 it was 41.4 µM (inactive); with U-251, 33.7 µM (inactive); with MDA-N, 44.6 µM (inactive). The GI50 with LOX IMVI was 23.6 µM (inactive); in the assay with NCI/ADR-RES it was 18.2 µM (inactive); in the assay with SNB-19 it was 61.1 µM (inactive); in the assay on 786-0, 84.1 µM (inactive); in the assay on SK-MEL-5, 11.7 µM (inactive); in the assay on MCF7 it was 31 µM (inactive). The GI50 in the assay with UACC-62 was > 100 µM (inactive); in the assay on DU-145 it was 84.7 µM (inactive); in the assay on SNB-75, 60.1 µM (inactive); in the assay on OVCAR-8, 48.4 µM (inactive); in the assay on NCI-H23 it was 25.8 µM (inactive); in the assay on UO-31 it was 33.1 µM (inactive). In addition, the results for the GI50 with SK-MEL-28 and in the assay on NCI-H522 were > 100 µM (inactive) and 13.9 µM (inactive), respectively.

Regarding `CC(NC(=O)/C(C#N)=C/c1ccc2[nH]ccc2c1)c1ccccc1` (stereo not given), the GI50 is 13.9 µM (inactive) with MDA-MB-435; 20.3 µM (inactive) in the assay on PC-3; 21.5 µM (inactive) in the assay with SF-268; 17.3 µM (inactive) with KM12; 15.9 µM (inactive) in the assay on U-251; 16.2 µM (inactive) with MDA-N. Also, the GI50 was 16.4 µM (inactive) in the assay on LOX IMVI; 28.8 µM (inactive) in the assay with NCI/ADR-RES; 19.6 µM (inactive) in the assay on SNB-19; 16.7 µM (inactive) in the assay with 786-0; 18.2 µM (inactive) in the assay with SK-MEL-5; 20.9 µM (inactive) in the assay on MCF7. The GI50 is 15.3 µM (inactive) with UACC-62; 16.7 µM (inactive) in the assay with DU-145; 31.4 µM (inactive) in the assay on SNB-75; 21.3 µM (inactive) with OVCAR-8; 19.4 µM (inactive) in the assay with NCI-H23; 14.7 µM (inactive) in the assay on UO-31. Moreover, the figures for the GI50 with SK-MEL-28 and with NCI-H522 were 19.8 µM (inactive) and 12.8 µM (inactive), respectively.

`Nc1nc(N)c(CCCCc2ccccc2)c(N)n1`: the GI50 in the assay with MDA-MB-435, in the assay on PC-3, in the assay on SF-268, in the assay on KM12, in the assay with U-251 and with MDA-N was > 100 µM (inactive) throughout. Further, the GI50 in the assay on LOX IMVI, in the assay with NCI/ADR-RES, with SNB-19, in the assay on 786-0, in the assay on SK-MEL-5 and with MCF7 was > 100 µM (inactive) in each case. Besides, the GI50 with UACC-62 was > 100 µM (inactive); in the assay with DU-145 it was > 100 µM (inactive); in the assay with SNB-75 it was 60.7 µM (inactive); with OVCAR-8, > 100 µM (inactive); with NCI-H23, > 100 µM (inactive); in the assay with UO-31, > 100 µM (inactive). In addition, the GI50 with SK-MEL-28 and in the assay on NCI-H522 was > 100 µM (inactive) in each case.

In the case of `COC1C(O)CC(OC2C(C)OC(Oc3cc(O)c4c(O)c5c(cc4c3)C[C@@H]([C@H](OC)C(=O)[C@@H](O)[C@@H](C)O)[C@H](OC3CC(OC4CC(OC6CC(C)(O)C(O)C(C)O6)C(O)C(C)O4)C(O)C(C)O3)C5=O)CC2OC(C)=O)OC1C` (stereo not given in full), the GI50 with MDA-MB-435 is 34 µM (inactive); in the assay with PC-3 it was > 100 µM (inactive); with SF-268 it was 97.1 µM (inactive); with KM12, 88.1 µM (inactive); with U-251, 48.1 µM (inactive); in the assay on MDA-N, 97.7 µM (inactive). Moreover, the GI50 in the assay with LOX IMVI is 19.5 µM (inactive); in the assay on NCI/ADR-RES it was > 100 µM (inactive); with SNB-19, 33.2 µM (inactive); with 786-0 it was > 100 µM (inactive); in the assay on SK-MEL-5, 17.1 µM (inactive); in the assay on MCF7, 24.4 µM (inactive). Also, the GI50 was 29.4 µM (inactive) with UACC-62; > 100 µM (inactive) in the assay on DU-145; > 100 µM (inactive) in the assay on SNB-75; 67.1 µM (inactive) in the assay on OVCAR-8; 88.1 µM (inactive) in the assay with NCI-H23; > 100 µM (inactive) in the assay with UO-31. Further, the GI50 is 32.2 µM (inactive) in the assay on SK-MEL-28 and 39.1 µM (inactive) in the assay on NCI-H522.

In the case of `COc1cc(C2c3cc4c(c(O)c3C(=O)C3CCC(=O)N32)OCO4)cc(OC)c1OC` (stereo not given), the GI50 with MDA-MB-435 was 18.2 µM (inactive); with PC-3, 38.8 µM (inactive); in the assay on SF-268, 57 µM (inactive); with KM12, 51.9 µM (inactive); in the assay with U-251, > 100 µM (inactive); with MDA-N, 30.4 µM (inactive). The GI50 in the assay with LOX IMVI is 52.5 µM (inactive); in the assay on NCI/ADR-RES it was 89.1 µM (inactive); in the assay with SNB-19, > 100 µM (inactive); in the assay on 786-0 it was 92.5 µM (inactive); in the assay on SK-MEL-5, 23.9 µM (inactive); in the assay with MCF7, 77.1 µM (inactive). Further, the GI50 was 30.1 µM (inactive) in the assay with UACC-62; > 100 µM (inactive) in the assay with DU-145; 30 µM (inactive) with SNB-75; > 100 µM (inactive) with OVCAR-8; > 100 µM (inactive) with NCI-H23; 26.7 µM (inactive) with UO-31. For the same compound, the values for the GI50 in the assay on SK-MEL-28 and in the assay with NCI-H522 were 49.5 µM (inactive) and 16.9 µM (inactive), respectively.

As to `COc1c(O)c(O)c2c(c1O)C(=O)c1cc(C)cc(O)c1C2=O`, the GI50 in the assay with MDA-MB-435 is 53.8 µM (inactive); with PC-3 it was 31.1 µM (inactive); with SF-268 it was 30.2 µM (inactive); in the assay with KM12, 35.2 µM (inactive); with U-251, 50.4 µM (inactive); in the assay with MDA-N it was 53 µM (inactive). Further, the GI50 with LOX IMVI was 24.1 µM (inactive); with NCI/ADR-RES, 16.7 µM (inactive); with SNB-19 it was 65.3 µM (inactive); with 786-0 it was 36.7 µM (inactive); with SK-MEL-5 it was 29.9 µM (inactive); in the assay with MCF7, 44.8 µM (inactive). Also, the GI50 is 15.3 µM (inactive) in the assay with UACC-62; 77.1 µM (inactive) in the assay with DU-145; 2.97 µM (inactive) in the assay on SNB-75; 20.1 µM (inactive) in the assay with OVCAR-8; 29.2 µM (inactive) in the assay with NCI-H23; 23.1 µM (inactive) in the assay with UO-31. Also, the GI50 is 98.6 µM (inactive) with SK-MEL-28 and 6.07 µM (inactive) with NCI-H522.

Regarding `O=C(NCCc1ccc(F)cc1)c1cc(/C=C/c2cc(O)ccc2O)ccc1O`, the GI50 in the assay on MDA-MB-435 is 3.78 µM (inactive); with PC-3 it was 2.96 µM (inactive); in the assay on SF-268 it was 3.47 µM (inactive); in the assay on KM12, 6.05 µM (inactive); in the assay on U-251, 2.1 µM (inactive); in the assay with MDA-N, 3.05 µM (inactive). Further, the GI50 in the assay on LOX IMVI was 3.38 µM (inactive); in the assay on NCI/ADR-RES, 2.69 µM (inactive); with SNB-19, 5.45 µM (inactive); in the assay with 786-0 it was 2.24 µM (inactive); in the assay with SK-MEL-5, 2.4 µM (inactive); with MCF7, 2.45 µM (inactive). Further, the GI50 was 2.12 µM (inactive) in the assay with UACC-62; 10.3 µM (inactive) in the assay with DU-145; 4.57 µM (inactive) in the assay with SNB-75; 3.29 µM (inactive) in the assay on OVCAR-8; 3.28 µM (inactive) in the assay on NCI-H23; 1.66 µM (inactive) with UO-31. Moreover, the GI50 in the assay with SK-MEL-28 is 3.21 µM (inactive); with NCI-H522 it was 1.52 µM (inactive).

On to `COc1cccc(C(=O)C(O)c2cccc(OC)c2OC)c1OC` (stereo not given), for which the GI50 in the assay with MDA-MB-435, with PC-3, in the assay with SF-268, in the assay on KM12, in the assay on U-251 and with MDA-N was > 100 µM (inactive) in each case. Moreover, the GI50 in the assay on LOX IMVI, with NCI/ADR-RES, in the assay with SNB-19, in the assay with 786-0, in the assay on SK-MEL-5 and in the assay with MCF7 was > 100 µM (inactive) in each case. Moreover, the GI50 with UACC-62, in the assay with DU-145, in the assay on SNB-75, in the assay on OVCAR-8, in the assay with NCI-H23 and with UO-31 was > 100 µM (inactive) in each case. The GI50 with SK-MEL-28 and in the assay with NCI-H522 was > 100 µM (inactive) in each case.

`CN(C)CCNc1ccc2nnn3c4ccc(Cl)cc4c(=O)c1c23`: the GI50 with MDA-MB-435 was 4.65 µM (inactive); in the assay on PC-3 it was 2.76 µM (inactive); in the assay on SF-268, 3.4 µM (inactive); in the assay on KM12, 4.54 µM (inactive); with U-251, 1.33 µM (inactive); in the assay with MDA-N it was 3.52 µM (inactive). The GI50 with LOX IMVI is 1.6 µM (inactive); in the assay with NCI/ADR-RES, 1.04 µM (active); in the assay with SNB-19 it was 4.17 µM (inactive); in the assay with 786-0, 2.42 µM (inactive); in the assay on SK-MEL-5, 2.94 µM (inactive); in the assay on MCF7, 5.01 µM (inactive). For the same compound, the GI50 in the assay on UACC-62 was 4.89 µM (inactive); in the assay with DU-145 it was 5.22 µM (inactive); in the assay with SNB-75, 3.01 µM (inactive); in the assay on OVCAR-8, 1.7 µM (inactive); with NCI-H23, 5.09 µM (inactive); in the assay on UO-31, 1.56 µM (inactive). Besides, the values for the GI50 with SK-MEL-28 and in the assay with NCI-H522 were 5.74 µM (inactive) and 2.49 µM (inactive), respectively.
